Key:
JAK2 = JAK2 (Homo sapiens (Human), UniProt O60674); test: JAK2 activity inhibition assay (radioactive kinase assay / Caliper assay); assay type: biochemical; settings: read-out: JAK2 Ki
Outline: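 Reaction ran 25 min at 28° C after adding peptide/ATP mix (10 mM MgCl2) to compound and enzyme in HEPES pH 7.5 buffer with Brij-35, Triton and EGTA. EDTA stop, then microfluidic off-chip separation quantified phosphorylated peptide.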

TYK2 = TYK2 (Homo sapiens (Human), UniProt P29597); test: Tyk2 activity inhibition assay (radioactive kinase assay / Caliper assay); assay type: biochemical
Outline: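 Two formats were used. Caliper off-chip mobility shift read phosphorylated peptide 30 (3 uM) after 25 min at 28° C with 9.75 nM TYK2 and ATP at 16 uM or 1 mM. Radioactive assay: 10 μM 33P-ATP, 20 μM peptide, 120 min room temp, P81 filter counting.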

TYK2, sequence (P29597 whole entry): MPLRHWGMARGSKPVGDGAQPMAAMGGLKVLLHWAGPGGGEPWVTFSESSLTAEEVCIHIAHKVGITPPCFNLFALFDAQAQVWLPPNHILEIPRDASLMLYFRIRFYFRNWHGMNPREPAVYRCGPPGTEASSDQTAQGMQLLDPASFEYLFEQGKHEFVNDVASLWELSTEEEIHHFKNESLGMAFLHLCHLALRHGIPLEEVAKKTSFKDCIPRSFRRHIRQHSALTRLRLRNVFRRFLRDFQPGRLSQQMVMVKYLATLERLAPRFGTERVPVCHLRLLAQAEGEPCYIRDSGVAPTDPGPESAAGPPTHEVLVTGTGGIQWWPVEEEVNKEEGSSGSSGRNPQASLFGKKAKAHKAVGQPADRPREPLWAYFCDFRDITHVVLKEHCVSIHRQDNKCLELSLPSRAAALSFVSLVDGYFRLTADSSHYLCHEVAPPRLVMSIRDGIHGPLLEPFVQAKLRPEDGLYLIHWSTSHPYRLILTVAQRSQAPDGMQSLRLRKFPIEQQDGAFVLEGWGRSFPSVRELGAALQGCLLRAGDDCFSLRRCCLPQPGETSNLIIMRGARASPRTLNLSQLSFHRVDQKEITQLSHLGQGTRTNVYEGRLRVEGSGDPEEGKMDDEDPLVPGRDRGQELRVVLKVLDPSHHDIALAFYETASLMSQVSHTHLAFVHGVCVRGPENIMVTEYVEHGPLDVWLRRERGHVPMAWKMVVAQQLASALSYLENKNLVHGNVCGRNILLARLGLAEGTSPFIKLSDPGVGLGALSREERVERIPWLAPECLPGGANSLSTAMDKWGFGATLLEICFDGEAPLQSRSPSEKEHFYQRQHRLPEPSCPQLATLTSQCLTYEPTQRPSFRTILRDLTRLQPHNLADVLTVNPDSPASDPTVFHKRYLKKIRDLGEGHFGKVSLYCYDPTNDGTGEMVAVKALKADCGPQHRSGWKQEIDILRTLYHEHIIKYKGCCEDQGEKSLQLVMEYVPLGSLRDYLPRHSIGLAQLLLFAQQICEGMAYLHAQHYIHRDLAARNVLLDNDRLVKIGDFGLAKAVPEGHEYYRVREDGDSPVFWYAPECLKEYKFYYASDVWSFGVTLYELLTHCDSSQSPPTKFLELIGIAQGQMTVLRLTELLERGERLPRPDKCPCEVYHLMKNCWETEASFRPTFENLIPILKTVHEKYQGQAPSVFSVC
JAK2, sequence (O60674 whole entry): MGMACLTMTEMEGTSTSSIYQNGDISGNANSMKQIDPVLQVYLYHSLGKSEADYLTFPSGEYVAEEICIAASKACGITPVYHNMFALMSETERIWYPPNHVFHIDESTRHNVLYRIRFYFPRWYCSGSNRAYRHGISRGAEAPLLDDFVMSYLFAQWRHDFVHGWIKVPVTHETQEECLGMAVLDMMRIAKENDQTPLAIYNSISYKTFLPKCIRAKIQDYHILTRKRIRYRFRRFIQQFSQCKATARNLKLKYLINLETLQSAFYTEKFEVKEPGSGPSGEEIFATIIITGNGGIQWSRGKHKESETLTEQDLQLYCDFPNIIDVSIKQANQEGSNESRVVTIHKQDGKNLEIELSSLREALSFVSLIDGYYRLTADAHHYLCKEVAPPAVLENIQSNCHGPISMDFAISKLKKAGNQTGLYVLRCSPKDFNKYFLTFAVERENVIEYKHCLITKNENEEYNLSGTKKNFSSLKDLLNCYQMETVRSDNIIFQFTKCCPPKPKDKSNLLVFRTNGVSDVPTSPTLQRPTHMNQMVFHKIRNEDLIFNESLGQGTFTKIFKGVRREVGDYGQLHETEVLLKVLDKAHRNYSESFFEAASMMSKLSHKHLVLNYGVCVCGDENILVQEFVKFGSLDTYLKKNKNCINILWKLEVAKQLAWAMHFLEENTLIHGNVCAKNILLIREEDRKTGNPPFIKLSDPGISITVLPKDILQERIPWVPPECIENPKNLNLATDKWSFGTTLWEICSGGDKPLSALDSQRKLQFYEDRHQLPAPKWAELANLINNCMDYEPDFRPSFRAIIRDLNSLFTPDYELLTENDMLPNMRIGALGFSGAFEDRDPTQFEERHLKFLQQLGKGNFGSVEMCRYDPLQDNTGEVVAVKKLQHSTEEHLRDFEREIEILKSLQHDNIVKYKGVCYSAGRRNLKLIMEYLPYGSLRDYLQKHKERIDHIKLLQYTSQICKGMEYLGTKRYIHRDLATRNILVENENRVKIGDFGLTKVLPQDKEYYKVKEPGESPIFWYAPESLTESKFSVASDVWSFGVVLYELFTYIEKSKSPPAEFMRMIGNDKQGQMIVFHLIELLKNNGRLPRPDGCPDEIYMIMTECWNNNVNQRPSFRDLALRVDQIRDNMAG

| Compound | Ki (JAK2) [nM] | Ki (TYK2) [nM] |
| --- | --- | --- |
| CN(CC(C)(C)O)C(=O)Cc1ccc(Nc2nc(-c3c(F)cccc3F)nc3c2C(=O)NC3)cc1 [Compound I-193, 2-(4-((2-(2,6-difluorophenyl)-5-oxo-6,7-dihydro-5H-pyrrolo[3,4-d]pyrimidin-4-yl)amino)phenyl)-N-(2-hydroxy-2-methylpropyl)-N-methylacetamide] | 100 to 1000 | < 10 |
| O=C1NCc2nc(-c3c(F)cccc3F)nc(Nc3ccc(CC(=O)N4CCOC[C@@H]4C(=O)O)cc3)c21 [Compound I-194, (R)-4-(2-(4-((2-(2,6-difluorophenyl)-5-oxo-6,7-dihydro-5H-pyrrolo[3,4-d]pyrimidin-4-yl)amino)phenyl)acetyl)morpholine-3-carboxylic Acid] | 100 to 1000 | 10 to 100 |
| CC(C(=O)N1CCCCC1)c1ccc(Nc2nc(-c3c(F)cccc3F)nc3c2C(=O)NC3)cc1 (stereo not shown) [Compound I-198, 2-(2,6-difluorophenyl)-4-((4-(1-oxo-1-(piperidin-1-yl)propan-2-yl)phenyl)amino)-6,7-dihydro-5H-pyrrolo[3,4-d]pyrimidin-5-one] | 100 to 1000 | < 10 |
| CCNC(=O)Cc1ccc(Nc2cc(-c3c(F)cccc3Cl)nc3c2C(=O)NC3)nc1 [Compound I-199, 2-(6-((2-(2-chloro-6-fluorophenyl)-5-oxo-6,7-dihydro-5H-pyrrolo[3,4-b]pyridin-4-yl)amino)pyridin-3-yl)-N-ethylacetamide] | 10 to 100 | < 10 |
| COC(=O)Cc1ccc(Nc2cc(-c3c(F)cccc3Cl)nc3c2C(=O)NC3)nc1 [Compound I-200, methyl 2-(6-((2-(2-chloro-6-fluorophenyl)-5-oxo-6,7-dihydro-5H-pyrrolo[3,4-b]pyridin-4-yl)amino)pyridin-3-yl)acetate] | 10 to 100 | < 10 |
| COC(=O)C1COCCN1C(=O)Cc1ccc(Nc2nc(-c3c(F)cccc3F)nc3c2C(=O)NC3)cc1 (stereo not shown) [Compound I-201, methyl 4-(2-(4-((2-(2,6-difluorophenyl)-5-oxo-6,7-dihydro-5H-pyrrolo[3,4-d]pyrimidin-4-yl)amino)phenyl)acetyl)morpholine-3-carboxylate] | 100 to 1000 | < 10 |
| O=C1NCc2nc(-c3c(F)cccc3F)nc(Nc3ccc(CC(=O)N4CCOCC4C(=O)O)cc3)c21 (stereo not shown) [Compound I-202, 4-(2-(4-((2-(2,6-difluorophenyl)-5-oxo-6,7-dihydro-5H-pyrrolo-[3,4-d]pyrimidin-4-yl)amino)phenyl)acetyl)morpholine-3-carboxylic Acid] | 100 to 1000 | < 10 |
| C=C(C(=O)NCC)c1ccc(Nc2nc(-c3c(F)cccc3F)nc3c2C(=O)NC3)cc1 [Compound I-203, 2-(4-((2-(2,6-difluorophenyl)-5-oxo-6,7-dihydro-5H-pyrrolo[3,4-d]pyrimidin-4-yl)amino)phenyl)-N-ethylacrylamide] | 100 to 1000 | 10 to 100 |
| O=C1NCc2nc(-c3c(F)cccc3Cl)cc(Nc3ccc(N4CCCC4)cn3)c21 [Compound I-204, 2-(2-chloro-6-fluorophenyl)-4-((5-(pyrrolidin-1-yl)pyridin-2-yl)amino)-6,7-dihydro-5H-pyrrolo[3,4-b]pyridin-5-one] | > 1000 | < 10 |
| CCNC(=O)Cc1ccc(Nc2nc(-c3c(F)cncc3F)nc3c2C(=O)NC3)cc1 [Compound I-208, 2-(4-((2-(3,5-difluoropyridin-4-yl)-5-oxo-6,7-dihydro-5H-pyrrolo[3,4-d]pyrimidin-4-yl)amino)phenyl)-N-ethylacetamide] | > 1000 | 100 to 1000 |
| CN1CCN(C)[C@@](C)(c2ccc(Nc3nc(-c4c(F)cccc4F)nc4c3C(=O)NC4)cc2)C1=O [Compound I-211, (S)-2-(2,6-difluorophenyl)-4-((4-(1,2,4-trimethyl-3-oxopiperazin-2-yl)phenyl)amino)-6,7-dihydro-5H-pyrrolo[3,4-d]pyrimidin-5-one] | 10 to 100 | < 10 |

— patent US10196390B2, “TYK2 inhibitors and uses thereof” (Nimbus Lakshmi, Inc., priority 2014, dated 2019)
